One assay concerns the target HLA DRB1 *0101 (Homo sapiens, UniProt P01903+P01911, A100R/D57E/F55L/F60I/F76Y/I96L/L162R/M171V/P40L/Q125E/R42F/V115G/Y59C). As to the kind of experiment: IC50nM to purified HLA | DRB1 *0101. As to the method:
(§1) Table printed on a drawing sheet, FIG. 1 (contd.)
Head of the field: IC50nM to purified HLA | DRB1 *0101
(§2) First copying reader's note: Continued from an earlier sheet of FIG. 1; decimal commas as printed, analog names encode substituted residues and positions, and some values are printed in italics or bold and some SEQ ID NOs underlined without a legend on this sheet.
Where the first naming reader finds the target: head: IC50nM to purified HLA | DRB1 *0101

A further assay concerns the target HLA DRB1 *0401 (Homo sapiens, UniProt P01903+P01911, A100K/A169T/F76Y/I96L/K127E/L162R/M171V/N62H/P40V/Q125Y/R42H/S133A/S149N/S66Y/V115G/V209L/W38E). As to the kind of experiment: IC50nM to purified HLA | DRB1 *0401. As to the method:
as §1
Head of the field: IC50nM to purified HLA | DRB1 *0401
as §2
Where the first naming reader finds the target: head: IC50nM to purified HLA | DRB1 *0401

The target in the next assay is HLA DRB1 *0701 (Homo sapiens, UniProt P01903+P01911, A100R/A102G/A103Q/D57E/D86V/E43K/F76Y/K127E/L162R/M171V/P40G/Q125H/Q99D/R33Q/R42Y/R54Q/S133A/S66F/T210M/V115G/Y107V/Y59L/Y89S). The assay is described as follows: IC50nM to purified HLA | DRB1 *0701. As to the method:
as §1
Head of the field: IC50nM to purified HLA | DRB1 *0701
as §2
Where the first naming reader finds the target: head: IC50nM to purified HLA | DRB1 *0701

The target in a further assay is HLA DRB1 *0901 (Homo sapiens, UniProt P01903+P01911, A100R/A103E/D57H/D86V/F55Y/F60I/F76Y/I96F/K127E/L162R/M171V/P40D/Q125H/Q99R/R33Q/R42F/S133A/S66N/T210M/V115G/W38K/Y107V/Y59G/Y89S). As to the kind of experiment: IC50nM to purified HLA | DRB1 *0901. As to the method:
as §1
Head of the field: IC50nM to purified HLA | DRB1 *0901
as §2
Where the first naming reader finds the target: head: IC50nM to purified HLA | DRB1 *0901

The target of the next assay is HLA DRB4 *0101 (Homo sapiens, UniProt P01903+P13762, G164S). As to the kind of experiment: IC50nM to purified HLA | DRB4 *0101. As to the method: as §1
Chain of HLA DRB4 *0101 (P01903 26-254 limits assumed): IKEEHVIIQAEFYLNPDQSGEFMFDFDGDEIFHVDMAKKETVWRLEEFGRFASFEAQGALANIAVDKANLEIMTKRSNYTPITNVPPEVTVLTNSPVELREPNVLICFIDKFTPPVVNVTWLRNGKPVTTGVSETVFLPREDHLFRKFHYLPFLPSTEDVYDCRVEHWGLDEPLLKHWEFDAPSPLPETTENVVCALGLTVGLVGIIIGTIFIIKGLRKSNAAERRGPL
Chain of HLA DRB4 *0101 (P13762 whole entry G164S): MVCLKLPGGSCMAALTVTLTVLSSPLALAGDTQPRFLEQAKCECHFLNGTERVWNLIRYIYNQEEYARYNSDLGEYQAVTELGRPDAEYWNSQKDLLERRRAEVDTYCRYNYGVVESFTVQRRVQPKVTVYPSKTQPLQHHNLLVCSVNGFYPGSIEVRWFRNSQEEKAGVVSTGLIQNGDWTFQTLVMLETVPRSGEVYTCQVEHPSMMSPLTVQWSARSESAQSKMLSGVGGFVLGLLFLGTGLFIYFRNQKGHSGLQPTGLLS
Head of the field: IC50nM to purified HLA | DRB4 *0101
as §2
Where the first naming reader finds the target: head: IC50nM to purified HLA | DRB4 *0101

The next assay concerns the target HLA DRB1 *1302 (Homo sapiens, UniProt P01903+P01911, A100E/A169T/K41T/L162R/M171V/P40S/Q125H/Q178H/Q39Y/Q99D/R42S/S66N/T262R/V115G/W38E/Y61H). As to the kind of experiment: IC50nM to purified HLA | DRB1 *1302. The method, then: as §1
Head of the field: IC50nM to purified HLA | DRB1 *1302
as §2
Where the first naming reader finds the target: head: IC50nM to purified HLA | DRB1 *1302

The target of the next assay is HLA DRB1 *1501 (Homo sapiens, UniProt P01903+P01911). The assay is described as follows: IC50nM to purified HLA | DRB1 *1501. The method, then:
as §1
Head of the field: IC50nM to purified HLA | DRB1 *1501
as §2
Where the first naming reader finds the target: head: IC50nM to purified HLA | DRB1 *1501

The target in a further assay is HLA DRB1 *0404 (Homo sapiens, UniProt P01903+P01911, A100R/A169T/F76Y/I96L/K127E/L162R/M171V/N62H/P40V/Q125Y/R42H/S133A/S149N/S66Y/V209L/W38E). The assay is described as follows: IC50nM to purified HLA | DRB1 *0404. As to the method: as §1
Head of the field: IC50nM to purified HLA | DRB1 *0404
as §2
Where the first naming reader finds the target: head: IC50nM to purified HLA | DRB1 *0404

A further assay deals with HLA DRB1 *0301 (Homo sapiens, UniProt P01903+P01911, A100K/A102G/A103R/A169T/F55Y/I96L/K41T/L162R/M171V/P40S/Q125H/Q178H/Q39Y/R42S/S66N/T106N/T262R/W38E/Y61H). As to the kind of experiment: IC50nM to purified HLA | DRB1 *0301. The method, then: as §1
Chain of HLA DRB1 *0301 (P01903 26-254 limits assumed, other chains not shown): as the sequence (P01903 26-254 limits assumed) above
Head of the field: IC50nM to purified HLA | DRB1 *0301
as §2
Where the first naming reader finds the target: head: IC50nM to purified HLA | DRB1 *0301

The target in the next assay is HLA DRB1 *0802 (Homo sapiens, UniProt P01903+P01911, A100R/A103L/A169T/F76Y/H45Y/I96F/K41T/L162R/M171V/P40S/Q125H/Q178H/Q39Y/Q99D/R218S/R42G/S66Y/V115G/W38E). As to the kind of experiment: IC50nM to purified HLA | DRB1 *0802. As to the method:
as §1
Head of the field: IC50nM to purified HLA | DRB1 *0802
as §2
Where the first naming reader finds the target: head: IC50nM to purified HLA | DRB1 *0802

Another assay has as its target HLA DRB1 *1101 (Homo sapiens, UniProt P01903+P01911, A100R/A169T/A87E/I96F/K41T/L162R/M171V/P40S/Q125H/Q178H/Q39Y/Q99D/R42S/S66Y/T262R/V115G/W38E). As to the kind of experiment: IC50nM to purified HLA | DRB1 *1101. The method, then:
as §1
Head of the field: IC50nM to purified HLA | DRB1 *1101
as §2
Where the first naming reader finds the target: head: IC50nM to purified HLA | DRB1 *1101

The target in another assay is HLA DRB1 *0405 (Homo sapiens, UniProt P01903+P01911, A100R/A169T/D86S/F76Y/I96L/K127E/L162R/M171V/N62H/P40V/Q125Y/R42H/S133A/S149N/S66Y/V115G/V209L/W38E). The assay is described as follows: IC50nM to purified HLA | DRB1 *0405. The method, then: as §1
Head of the field: IC50nM to purified HLA | DRB1 *0405
as §2
Where the first naming reader finds the target: head: IC50nM to purified HLA | DRB1 *0405

The next assay has as its target HLA DRB5 *0101 (Homo sapiens, UniProt P01903+Q30154). As to the kind of experiment: IC50nM to purified HLA | DRB5 *0101. As to the method: as §1
Head of the field: IC50nM to purified HLA | DRB5 *0101
as §2
Where the first naming reader finds the target: head: IC50nM to purified HLA | DRB5 *0101

Where no end group is shown, it is not given here.

Chain of HLA DRB1 *1101 (P01903 26-254 limits assumed, other chains not shown): as the sequence (P01903 26-254 limits assumed) above
Chain of HLA DRB1 *1302 (P01903 26-254 limits assumed, other chains not shown): as the sequence (P01903 26-254 limits assumed) above

For AAAIFVAANTLHAAA [SEQ ID NO: 72], the IC50 came to 7.3 nM against HLA DRB1 *0101; 2.7 nM on HLA DRB1 *0401; 109 nM against HLA DRB1 *0701; 75 nM on HLA DRB1 *0901; 109 nM against HLA DRB4 *0101; 65 nM on HLA DRB1 *1302. Moreover, the IC50 was 17 nM against HLA DRB1 *1501 and 4.5 nM against HLA DRB1 *0404.
Take AAAIFVAAYTLHAAA [SEQ ID NO: 70]: the IC50 against HLA DRB1 *0101 turned out to be 5.7 nM; against HLA DRB1 *0301 it was 301 nM; at HLA DRB1 *0701, 95 nM; against HLA DRB1 *0802, 9.4 nM; at HLA DRB4 *0101, 346 nM; against HLA DRB1 *1302 it was 1950 nM. The concentration for half-maximal inhibition (IC50) on HLA DRB1 *1501 amounted to 3.2 nM; against HLA DRB1 *1101 it was 19 nM.
For AAANFVAAFTLHAAA [SEQ ID NO: 53], the half-inhibitory concentration (IC50) against HLA DRB1 *0101 is 4.7 nM; against HLA DRB1 *0301, 254 nM; at HLA DRB1 *0401, 1.6 nM; at HLA DRB1 *0405 it was 12 nM; against HLA DRB1 *0701, 52 nM; at HLA DRB1 *0802, 12 nM. Further, the half-inhibitory concentration (IC50) against HLA DRB1 *0901 was found to be 41 nM; against HLA DRB4 *0101, 111 nM.
AAANFVAAFTLKADA [SEQ ID NO: 57]: the IC50 against HLA DRB1 *0101 is 10 nM; at HLA DRB1 *0401, 4.3 nM; on HLA DRB1 *0405, 13 nM; at HLA DRB1 *1501, 24 nM; on HLA DRB1 *0404 it was 12 nM; against HLA DRB1 *1101 it was 74 nM.
Turning to AAANFVAANTLHAAA [SEQ ID NO: 54], the IC50 against HLA DRB1 *0101 came to 6.1 nM; at HLA DRB1 *0401, 3.4 nM; on HLA DRB1 *0701 it was 84 nM; on HLA DRB4 *0101 it was 1110 nM; against HLA DRB1 *1302, 44 nM; at HLA DRB1 *1501, 114 nM. The sequence also showed a 50% inhibitory concentration (IC50) on HLA DRB5 *0101 of 43 nM.
For the sequence AAANFVAANTLKADA [SEQ ID NO: 58], the half-maximal inhibitory concentration (IC50) against HLA DRB1 *0401 worked out at 9.7 nM; against HLA DRB1 *0901, 109 nM; against HLA DRB4 *0101 it was 6320 nM; at HLA DRB1 *1302, 269 nM; on HLA DRB1 *1501, 296 nM.
Regarding AAANFVAANTLKAEA [SEQ ID NO: 62], the IC50 was 1740 nM at HLA DRB1 *0301; 107 nM against HLA DRB1 *0701; 964 nM on HLA DRB4 *0101; 34 nM on HLA DRB5 *0101; 11 nM against HLA DRB1 *0404; 78 nM against HLA DRB1 *1101.
On to AAANFVAAWTLKAEA [SEQ ID NO: 59], for which the IC50 is 1.8 nM at HLA DRB1 *0101; 723 nM on HLA DRB1 *0301; 3.8 nM against HLA DRB1 *0405; 19 nM at HLA DRB1 *0802; 221 nM on HLA DRB4 *0101; 1040 nM against HLA DRB1 *1302. In addition, the IC50 against HLA DRB1 *1501 is 31 nM; at HLA DRB5 *0101, 15 nM.
On to AAANFVAAYTLKADA [SEQ ID NO: 56], for which the IC50 against HLA DRB1 *0301 came out at 1530 nM; against HLA DRB1 *0401, 6.3 nM; against HLA DRB1 *0802, 22 nM; against HLA DRB1 *0901 it was 44 nM; on HLA DRB1 *1302, 819 nM; against HLA DRB1 *1501, 12 nM. Also, the concentration for half-maximal inhibition (IC50) against HLA DRB1 *0404 was 15 nM; at HLA DRB1 *1101, 100 nM.
For AAANFVAAYTLKAEA [SEQ ID NO: 60], the IC50 on HLA DRB1 *0301 turned out to be 1070 nM; on HLA DRB1 *0401, 13 nM; at HLA DRB1 *0802 it was 21 nM; against HLA DRB1 *0901, 43 nM; against HLA DRB4 *0101, 718 nM; at HLA DRB1 *1302, 590 nM. Further, the half-inhibitory concentration (IC50) against HLA DRB1 *1501 amounted to 11 nM; against HLA DRB1 *0404 it was 6.1 nM.
On to AAAQFVAAFTLHAAA [SEQ ID NO: 66], for which the IC50 on HLA DRB1 *0401 is 2.7 nM; against HLA DRB1 *0405, 7.7 nM; on HLA DRB1 *0802, 13 nM; against HLA DRB1 *0901 it was 31 nM; against HLA DRB4 *0101, 97 nM; against HLA DRB1 *0404, 4.4 nM.
AAAQFVAANTLHAAA [SEQ ID NO: 67]: the concentration for half-maximal inhibition (IC50) against HLA DRB1 *0301 worked out at 319 nM; at HLA DRB1 *0401 it was 3.3 nM; against HLA DRB1 *0701, 76 nM; on HLA DRB1 *0802, 24 nM; against HLA DRB1 *1501, 78 nM; at HLA DRB1 *1101, 44 nM.
In the case of AAAQFVAAWTLKAAA [SEQ ID NO: 63], the half-maximal inhibitory concentration (IC50) is 5.1 nM at HLA DRB1 *0101; 271 nM against HLA DRB1 *0301; 1.6 nM against HLA DRB1 *0401; 21 nM at HLA DRB1 *0405; 259 nM against HLA DRB4 *0101; 17 nM against HLA DRB1 *1501. For the same sequence, the 50% inhibitory concentration (IC50) on HLA DRB5 *0101 was 5.2 nM; against HLA DRB1 *1101, 12 nM.

A word on the IC50: it is the midpoint of a concentration-inhibition curve. Read a high IC50 as a need for much substance.

The values are drawn from patent publication US9789181B2, “PAN-DR binding polypeptides and uses thereof” (Epimmune Inc., priority 2009, dated 2017).
